Results reported in PMC4413193, “3-[4-(1H-Indol-3-yl)-1,3-thiazol-2-yl]-1H-pyrrolo[2,3-b]pyridines, Nortopsentin Analogues with Antiproliferative Activity” (Marine Drugs, 2015).

Key:
[1] = tested on: CCRF-CEM; test: NCI-60 in vitro tumor cell growth inhibition, CCRF-CEM (leukemia); assay type: cell-based; details: Homo sapiens, five concentration levels 10^−4–10^−8 M
Protocol: (§1) All the synthesized thiazoles 3a–k were evaluated by the National Cancer Institute (Bethesda MD) for cytotoxicity against the NCI-60 cell line panel using standard protocols. Initially, the selected derivatives 3c,d,g,h,j,k were tested at a single dose (10^−5 M) on the full panel of approximately 60 human tumor cell lines derived from 9 human cancer cell types, that have been grouped in disease sub-panels including leukemia, non-small-cell lung, colon, central nervous system (CNS), melanoma, ovarian, renal, prostate and breast cancers (data not shown). Compounds 3d and 3k were further selected for full evaluation at five concentration levels (10^−4–10^−8 M).
(§2) The antitumor activity of compounds 3d and 3k was given by three parameters for each cell line: GI50 (the molar concentration of the compound that inhibits 50% net cell growth), TGI (the molar concentration of the compound leading to total inhibition of net cell growth), and LC50 (the molar concentration of the compound that induces 50% net cell death). The average values of mean graph midpoint (MG_MID) were calculated for each of these parameters.

[2] = tested on: RPMI-8226; test: NCI-60 in vitro tumor cell growth inhibition, RPMI-8226 (leukemia); assay type: cell-based; details: Homo sapiens, five concentration levels 10^−4–10^−8 M
Protocol: as §1, §2

[3] = tested on: SR; test: NCI-60 in vitro tumor cell growth inhibition, SR (leukemia); assay type: cell-based; details: Homo sapiens, five concentration levels 10^−4–10^−8 M
Protocol: as §1, §2

[4] = tested on: EKVK; test: NCI-60 in vitro tumor cell growth inhibition, EKVK (non-small cell lung cancer); assay type: cell-based; details: Homo sapiens, five concentration levels
Protocol: as §1, §2

[5] = tested on: HOP-92; test: NCI-60 in vitro tumor cell growth inhibition, HOP-92 (non-small cell lung cancer); assay type: cell-based; details: Homo sapiens, five concentration levels
Protocol: as §1, §2

[6] = tested on: NCI-H226; test: NCI-60 in vitro tumor cell growth inhibition, NCI-H226 (non-small cell lung cancer); assay type: cell-based; details: Homo sapiens, five concentration levels
Protocol: as §1, §2

[7] = tested on: NCI-H460; test: NCI-60 in vitro tumor cell growth inhibition, NCI-H460 (non-small cell lung cancer); assay type: cell-based; details: Homo sapiens, five concentration levels
Protocol: as §1, §2

[8] = tested on: NCI-H522; test: NCI-60 in vitro tumor cell growth inhibition, NCI-H522 (non-small cell lung cancer); assay type: cell-based; details: Homo sapiens, five concentration levels
Protocol: as §1, §2

[9] = tested on: COLO-205; test: NCI-60 in vitro tumor cell growth inhibition, COLO-205 (colon cancer); assay type: cell-based; details: Homo sapiens, five concentration levels
Protocol: as §1, §2

[10] = tested on: HCT-116; test: NCI-60 in vitro tumor cell growth inhibition, HCT-116 (colon cancer); assay type: cell-based; details: Homo sapiens, five concentration levels
Protocol: as §1, §2

[11] = tested on: SNB-75; test: NCI-60 in vitro tumor cell growth inhibition, SNB-75 (CNS cancer); assay type: cell-based; details: Homo sapiens, five concentration levels
Protocol: as §1, §2

[12] = tested on: MALME-3M; test: NCI-60 in vitro tumor cell growth inhibition, MALME-3M (melanoma); assay type: cell-based; details: Homo sapiens, five concentration levels
Protocol: as §1, §2

[13] = tested on: MDA-MB-435; test: NCI-60 in vitro tumor cell growth inhibition, MDA-MB-435 (melanoma); assay type: cell-based; details: Homo sapiens, five concentration levels
Protocol: as §1, §2

[14] = tested on: SK-MEL-2; test: NCI-60 in vitro tumor cell growth inhibition, SK-MEL-2 (melanoma); assay type: cell-based; details: Homo sapiens, five concentration levels
Protocol: as §1, §2

[15] = tested on: IGROV1; test: NCI-60 in vitro tumor cell growth inhibition, IGROV1 (ovarian cancer); assay type: cell-based; details: Homo sapiens, IGROV-1, five concentration levels
Protocol: as §1, §2

[16] = tested on: OVCAR-8; test: NCI-60 in vitro tumor cell growth inhibition, OVCAR-8 (ovarian cancer); assay type: cell-based; details: Homo sapiens, five concentration levels
Protocol: as §1, §2

[17] = tested on: NCI/ADR-RES; test: NCI-60 in vitro tumor cell growth inhibition, NCI/ADR-RES (ovarian cancer); assay type: cell-based; details: Homo sapiens, five concentration levels
Protocol: as §1, §2

[18] = tested on: SK-OV-3; test: NCI-60 in vitro tumor cell growth inhibition, SK-OV-3 (ovarian cancer); assay type: cell-based; details: Homo sapiens, five concentration levels
Protocol: as §1, §2

[19] = tested on: PC-3; test: NCI-60 in vitro tumor cell growth inhibition, PC-3 (prostate cancer); assay type: cell-based; details: Homo sapiens, five concentration levels
Protocol: as §1, §2

[20] = tested on: DU-145; test: NCI-60 in vitro tumor cell growth inhibition, DU-145 (prostate cancer); assay type: cell-based; details: Homo sapiens, five concentration levels
Protocol: as §1, §2

[21] = tested on: BT-549; test: NCI-60 in vitro tumor cell growth inhibition, BT-549 (breast cancer); assay type: cell-based; details: Homo sapiens, five concentration levels
Protocol: as §1, §2

[22] = tested on: HepG2 cells; test: Cell cycle analysis by flow cytometry (PI staining); assay type: cell-based, human; details: HepG2, 24 h treatment
Protocol: The distribution of HepG2 cells in the cell cycle phases after 24 h treatment with the two norptopsentin analogues, was assessed by flow cytometric analysis after staining of DNA with PI.
Cell cycle stage was analyzed by flow cytometry. Aliquots of 1 × 10^6 cells were harvested by centrifugation, washed with PBS and incubated in the dark in a PBS solution containing 20 μg/mL propidium iodide (PI) and 200 μg/mL RNase, for 30 min, at room temperature. Then samples were subjected to fluorescence-activated cell sorting (FACS) analysis by Epics XL™ flow cytometer using Expo32 software (Beckman Coulter, Fullerton, CA, USA). At least 1 × 10^4 cells were analyzed for each sample.

[23] = tested on: HepG2 cells; test: Acridine orange/ethidium bromide morphological staining; assay type: cell-based, human; details: HepG2, 24 h, at GI50 concentration
Description: To confirm apoptotic mechanism of cytotoxicity of the nortopsentin analogues, we carried out morphological evaluation of HepG2 cells using AO and EB double staining. […] Moreover, fluorescing orange cells owing to increase of cell permeability to ethidium bromide, cell shrinkage and nuclear fragmentation were also evident as cells in late apoptosis (Figure 3B). Taken together, these findings provided strong evidence that the synthesized nortopsentin analogues induced apoptosis in HepG2 cells.
Acridine orange (AO) stains DNA bright green, allowing visualization of the nuclear chromatin pattern and stains both live and dead cells. Ethidium bromide (EB) stains DNA orange but is excluded by viable cells. Dual staining allows separate enumeration of populations of viable non-apoptotic, viable (early) apoptotic, nonviable (late) apoptotic, and necrotic cells. Live cells appear uniformly green. […] Late apoptotic cells incorporate EB and therefore stain orange, but, in contrast to necrotic cells, the late apoptotic cells show condensed and often fragmented nuclei. Necrotic cells stain orange, but have a nuclear morphology resembling that of viable cells, with no condensed chromatin. Briefly, after HepG2 cells were treated with 3d or 3k compounds for 24 h, the medium was discarded. […]

[24] = tested on: HepG2 cells; test: Intracellular reactive oxygen species, DCFH flow cytometry; assay type: cell-based, human; details: HepG2, 24 h treatment
Protocol: Involvement of mitochondria in apoptosis induced in HepG2 cells by the synthesized nortopsentin analogues, was assessed. Loss of mitochondrial trans-membrane potential was indicated by decreased mitochondrial 3,30-dihexyloxacarbocyanine iodide-red fluorescence (Figure 4A).
ROS level was monitored by measuring fluorescence changes that resulted from intracellular oxidation of 2′,7′-dichlorofluorescin diacetate (DCFH). DCFH, at […] final concentration, was added to the cell medium 30 min before the end of the treatment. The cells were collected by centrifugation for 5 min at 2000 rpm at 4 °C, washed, suspended in PBS and immediately subjected to fluorescence-activated cell sorting analysis. At least 1 × 10^4 cells were analyzed for each sample.

Question: Which results are given for `Cn1cc(-c2csc(-c3cn(C)c4ncccc34)n2)c2ccccc21` [Compound 3d, 1-Methyl-3-[4-(1-methyl-1H-indol-3-yl)-1,3-thiazol-2-yl]-1H-pyrrolo[2,3-b]pyridine]?
Answer: GI50 [1]: 400 nM; GI50 [2]: 450 nM; GI50 [3]: 60 nM; GI50 [4]: 910 nM; GI50 [5]: 350 nM; GI50 [6]: 740 nM; GI50 [7]: 300 nM; GI50 [8]: 40 nM; GI50 [9]: 190 nM; GI50 [10]: 370 nM; GI50 [11]: 160 nM; GI50 [12]: 1040 nM; GI50 [13]: 30 nM; GI50 [14]: 580 nM; GI50 [15]: 1330 nM; GI50 [16]: 660 nM; GI50 [17]: 90 nM; GI50 [18]: 570 nM; GI50 [19]: 460 nM; GI50 [20]: 390 nM; GI50 [21]: 470 nM; distribution of HepG2 cells in the cell cycle phases [22]: significant dose-dependent decrease in the percentage of cells in the G0/G1 and S phases, accompanied by a concomitant percentage increase of cells in the G2/M phase, and appearance of a subG1-cell population; morphological evaluation, AO and EB double staining [23]: chromatin condensation and nuclear fragmentation; levels of intracellular ROS [24]: significantly higher than cell control

Question: Which GI50 [1] does the source give for `Cn1cc(-c2nc(-c3c[nH]c4ccccc34)cs2)c2cccnc21` [Compound 3k, 3-[4-(1H-Indol-3-yl)-1,3-thiazol-2-yl]-1-methyl-1H-pyrrolo[2,3-b]pyridine] here?
Answer: The GI50 was 430 nM.

Question: And the GI50 [2]?
Answer: The GI50 was 650 nM.

Question: And the GI50 [3]?
Answer: The GI50 was 140 nM.

Question: What about the GI50 [4] of the same compound?
Answer: Its GI50 is 910 nM.

Question: What about the GI50 [5] of the same compound?
Answer: Its GI50 is 310 nM.

Question: And the GI50 [6]?
Answer: Its GI50 is 650 nM.

Question: And the GI50 [7]?
Answer: The GI50 was 370 nM.

Question: What about the GI50 [8] of the same compound?
Answer: Its GI50 is 50 nM.

Question: What about the GI50 [9] of the same compound?
Answer: Its GI50 is 190 nM.

Question: And the GI50 [10]?
Answer: Its GI50 is 390 nM.

Question: What about the GI50 [11] of the same compound?
Answer: Its GI50 is 140 nM.

Question: What about the GI50 [12] of the same compound?
Answer: Its GI50 is 740 nM.

Question: And the GI50 [13]?
Answer: Its GI50 is 40 nM.

Question: And the GI50 [14]?
Answer: Its GI50 is 410 nM.

Question: What about the GI50 [15] of the same compound?
Answer: Its GI50 is 1180 nM.

Question: And the GI50 [16]?
Answer: Its GI50 is 820 nM.

Question: What about the GI50 [17] of the same compound?
Answer: Its GI50 is 150 nM.

Question: What about the GI50 [18] of the same compound?
Answer: Its GI50 is 520 nM.

Question: What about the GI50 [19] of the same compound?
Answer: The GI50 was 560 nM.

Question: What about the GI50 [20] of the same compound?
Answer: The GI50 was 560 nM.

Question: What about the GI50 [21] of the same compound?
Answer: Its GI50 is 440 nM.

Question: What about the “distribution of HepG2 cells in the cell cycle phases” value [22] of the same compound?
Answer: Its value is “significant dose-dependent decrease in the percentage of cells in the G0/G1 and S phases, accompanied by a concomitant percentage increase of cells in the G2/M phase, and appearance of a subG1-cell population”.

Question: What about the “morphological evaluation, AO and EB double staining” value [23] of the same compound?
Answer: Its value is “chromatin condensation and nuclear fragmentation”.

Question: And the “levels of intracellular ROS” value [24]?
Answer: The value was “significantly higher than cell control”.
